Test results reported in patent publication US6613340B2, “Substantive hydrophobic cationic UV-absorbing compounds” (Galaxy Surfactants Ltd., priority 2001, dated 2003).

Assay: UV absorption (molar extinction coefficient)
Format: physicochemical
Details: in methanol
Procedure: Ethyl p-methoxy cinnamate (206.0 g, 1.0 mole), N,N-dimethylpropyldiamine (306.0 g, 3.0 mole) and sodium methoxide (2.0 g) were charged in a pressure reactor. The air inside the reactor was flushed out by purging of nitrogen. The reaction mixture was then stirred at 180° C. (this generated pressure of 18 kg/cm^2) for 36 hours. The progress of reaction was monitored by disappearance of ethyl p-methoxy cinnamate on chromatography (TLC and HPLC). The TLC was performed on aluminium coated silica gel plates (Merck-60-F-254) and viewed with a UV lamp at 254 nm. HPLC was performed using reversed phase technique on a C-18 bonded (octadecyl silane) column and 60% aqueous methanol as mobile phase (1.0 ml/min) and detection at 280 nm. The excess amine was removed under vacuum.

SMILES	molar extinction coefficient, ε (at 290 nm, in M-1cm-1 (unit assumed))	molar extinction coefficient, ε (at λmax 310 nm)
COc1ccc(C=CC(=O)NCCCN(C)C)cc1 [p-methoxy cinnamidopropyldimethylamine]	24,224	
CCCCCCCCCCCC[N+](C)(C)CCCNC(=O)C=Cc1ccc(OC)cc1.Cc1ccc(S(=O)(=O)[O-])cc1 [p-methoxy cinnamidopropyldimethyllauryl ammonium tosylate]		25,000
